Test results: PMC6152416, “Pharmacological and Toxicological Screening of Novel Benzimidazole-Morpholine Derivatives as Dual-Acting Inhibitors” (Molecules : A Journal of Synthetic Chemistry and Natural …, 2017)
Entries after “also recorded” stand apart in the source; their conditions may differ. Marks after values point to notes of the source that are not given here.

Tests used:
MTT cytotoxicity assay = type: cell-based, mouse; conditions: mouse, NIH/3T3 mouse embryonic fibroblast cells, read-out: Cytotoxicity NIH3T3 Cells IC50
Protocol: (§1) Cytotoxicity was tested using NIH/3T3 mouse embryonic fibroblast cell line (ATCC® CRL-1658™, London, UK). NIH/3T3 cells were incubated according to the supplier’s recommendations. NIH/3T3 cells were seeded as 1 × 10^4 cells into each well of 96-well plates. MTT assay was performed as previously described. The compounds were tested between 1 mM and 0.000316 mM concentrations (1.0, 0.316, 0.10, 0.0316, 0.01, 0.00316, 0.001, 0.000316 mM). The IC50 values were determined by plotting a dose-response curve of inhibition % versus tested concentrations of the compound [62].

[1] = system: NIH/3T3 mouse embryonic fibroblast cell line; experiment: MTT cytotoxicity assay; type: cell-based; conditions: NIH/3T3
Protocol: as §1

[2] = system: Salmonella typhimurium TA100; experiment: Ames MPF genotoxicity assay; type: cell-based; conditions: for Ames MPF mutagenicity classification: TA100, with/without metabolic activation (S9)
Protocol: (§2) The genotoxicity of selected compounds (2b, 2j, 2m) was determined by Ames assay using Ames MPF 98/100 mutagenicity assay sample kit (Xenometrix AG, Allschwil, Switzerland) as previously described elsewhere. Salmonella typhimurium strains, TA98 (frameshift mutations) and TA100 (base-pair substitutions) were used in the assay. The concentration of the compounds was between 16 and 5000 μg/mL, in accordance with the guideline. Compounds were prepared in six different concentrations (5.0, 2.5, 1.25, 0.625, 0.3125, 0.156 mg/mL) in DMSO. Mutagenic potential was determined in the absence or presence of Aroclor™-1254 induced male Sprague–Dawley rat liver microsomal enzyme (S9) mix (Xenometrix AG). Positive controls without S9 mix were 2-nitrofluorene (2.0 μg/mL) and 4-nitroquinoline N-oxide (0.1 μg/mL), whereas 1.0 μg/mL and 2.5 μg/mL of 2-aminoanthracene solutions were used as positive controls with S9 against TA98 and TA100, respectively. Solvent control was prepared with 4% DMSO. The end of an experiment was determined by the change of the indicator medium colour to yellow, which was originating from the decrease of pH due to revertant bacteria. Yellow wells were counted as positive, and compared with the negative control. Fold induction over the negative control and fold induction over the baseline were calculated (Fold induction over the negative control is accepted as the ratio of the mean number of positive wells for the dose concentration divided by the mean number of positive wells for the zero dose (negative) control. Fold induction over the baseline is accepted as the ratio of the mean number of positive wells for the dose concentration divided by zero dose baseline. The zero-dose baseline is obtained by adding one standard deviation to the mean number of positive wells of the zero dose control. If the baseline is less than 1, the value is set to 1 for calculation).
(§3) Mutagenicity was determined according to the criteria reported previously. For a baseline value of ≤3, significant increases between 2 and 3-fold of the baseline were classified as weak mutagen, and increases ≥3-fold of the baseline were classified as mutagen. […] As a rule, at least two adjacent doses with significant increases or a significant increase at the highest dose level should be observed for a mutagenic compound. All of the doses were compared according to Student’s t-test at p < 0.05 for statistical significance.

[3] = system: Salmonella typhimurium TA98; experiment: Ames MPF genotoxicity assay; type: cell-based; conditions: for Ames MPF mutagenicity classification: TA98, in the presence/absence of metabolic activation (S9)
Protocol: as §2, §3

human recombinant MAO-B = target: T1, human recombinant MAO-B (Homo sapiens, UniProt P27338); experiment: MAO inhibition assay (kynuramine, fluorimetric); type: biochemical
T1 sequence (P27338 1-520): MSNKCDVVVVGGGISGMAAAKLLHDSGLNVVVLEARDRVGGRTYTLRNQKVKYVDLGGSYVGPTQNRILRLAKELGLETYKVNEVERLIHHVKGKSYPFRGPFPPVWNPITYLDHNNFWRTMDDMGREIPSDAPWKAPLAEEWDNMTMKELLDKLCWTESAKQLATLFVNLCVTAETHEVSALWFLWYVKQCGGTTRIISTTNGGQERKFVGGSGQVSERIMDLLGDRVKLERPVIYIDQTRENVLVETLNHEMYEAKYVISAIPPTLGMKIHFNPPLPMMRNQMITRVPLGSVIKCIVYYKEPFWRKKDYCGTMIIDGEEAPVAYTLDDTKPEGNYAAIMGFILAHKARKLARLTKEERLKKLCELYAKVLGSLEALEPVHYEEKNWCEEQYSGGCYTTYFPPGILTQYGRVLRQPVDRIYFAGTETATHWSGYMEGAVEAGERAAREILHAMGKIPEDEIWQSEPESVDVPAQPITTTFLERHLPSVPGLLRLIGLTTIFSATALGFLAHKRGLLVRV
Protocol: Enzyme activity assays were performed according to the procedure reported by Matsumoto et al. with slight modifications. In order to prevent the destructive effect of light on MAO enzymes, the assays were performed in 96-well black plates. Phosphate buffer solution (0.1 M, pH = 7.4) was used for preparation of stock solutions (5 mg/mL) of both human recombinant MAO-A and MAO-B enzymes. […] The addition of the test compound solution was followed by addition of either MAO-A or MAO-B enzyme (50 μL/well) solutions. After 10 min of incubation at 37 °C, kynuramine (50 μL/well) was added and enzyme-substrate reaction was initiated. The plate was incubated for 20 min at 37 °C and then reaction was terminated by addition of 2 N NaOH (75 μL/well). The fluorimetric reads from the top was performed at 310 nm excitation and 380 nm emission wavelengths.

Row | SMILES | IC50 (MTT cytotoxicity assay) | cytotoxicity in words [1] | REVERTANTS Fold Increase (over Baseline) ([2]; TA100, S9+, 0.156 mg/mL) | REVERTANTS Fold Increase (over Baseline) ([2]; TA100, S9+, 0.3125 mg/mL) | REVERTANTS Fold Increase (over Baseline) ([2]; TA100, S9+, 0.625 mg/mL) | REVERTANTS Fold Increase (over Baseline) ([2]; TA100, S9+, 1.25 mg/mL) | REVERTANTS Fold Increase (over Baseline) ([2]; TA100, S9+, 2.5 mg/mL) | REVERTANTS Fold Increase (over Baseline) ([2]; TA100, S9+, 5 mg/mL) | REVERTANTS Fold Increase (over Baseline) ([2]; TA100, S9−, 0.156 mg/mL) | REVERTANTS Fold Increase (over Baseline) ([2]; TA100, S9−, 0.3125 mg/mL) | REVERTANTS Fold Increase (over Baseline) ([2]; TA100, S9−, 0.625 mg/mL) | REVERTANTS Fold Increase (over Baseline) ([2]; TA100, S9−, 1.25 mg/mL) | REVERTANTS Fold Increase (over Baseline) ([2]; TA100, S9−, 2.5 mg/mL) | REVERTANTS Fold Increase (over Baseline) ([2]; TA100, S9−, 5 mg/mL) | Ames MPF mutagenicity classification [2] | REVERTANTS Fold Increase (over Baseline) ([3]; TA98, S9+, 0.156 mg/mL) | REVERTANTS Fold Increase (over Baseline) ([3]; TA98, S9+, 0.3125 mg/mL) | REVERTANTS Fold Increase (over Baseline) ([3]; TA98, S9+, 0.625 mg/mL) | MAO-B Inhibition (%) (human recombinant MAO-B; 10^-3 M) | MAO-B Inhibition (%) (human recombinant MAO-B; 10^-4 M) | further results
1 | COc1ccc(-c2nc3ccccc3n2CCN2CCOCC2)cc1 [Compound 2b, 2-(4-Methoxyphenyl)-1-[2-(morpholin-4-yl)ethyl]-1H-benzimidazole] | 316 µM | non-cytotoxic | 0.06 | 0.52 | 0.45 | 0.26 | 0.26 | 0.13 | 1.31 *** | 1.37 *** | 0.69 | 0.62 | 0.25 *** | 0.44 * | non-genotoxic | 0.16 | 0.32 | 0.00 | 32.44% | 31.75% | REVERTANTS Fold Increase (over Baseline) ([3]; TA98, S9+, 1.25 mg/mL): 0.48; REVERTANTS Fold Increase (over Baseline) ([3]; TA98, S9+, 2.5 mg/mL): 0.80; REVERTANTS Fold Increase (over Baseline) ([3]; TA98, S9+, 5 mg/mL): 1.27; REVERTANTS Fold Increase (over Baseline) ([3]; TA98, S9−, 0.156 mg/mL): 0.69; REVERTANTS Fold Increase (over Baseline) ([3]; TA98, S9−, 0.3125 mg/mL): 0.75; REVERTANTS Fold Increase (over Baseline) ([3]; TA98, S9−, 0.625 mg/mL): 0.81; REVERTANTS Fold Increase (over Baseline) ([3]; TA98, S9−, 1.25 mg/mL): 0.40; REVERTANTS Fold Increase (over Baseline) ([3]; TA98, S9−, 2.5 mg/mL): 0.40; REVERTANTS Fold Increase (over Baseline) ([3]; TA98, S9−, 5 mg/mL): 0.75; Ames MPF mutagenicity classification [3]: non-genotoxic; also recorded: non-mutagenic
2 | Clc1ccc(-c2nc3ccccc3n2CCN2CCOCC2)cc1 [Compound 2c, 2-(4-Chlorophenyl)-1-[2-(morpholin-4-yl)ethyl]-1H-benzimidazole] |  |  |  |  |  |  |  |  |  |  |  |  |  |  |  |  |  |  | 41.12% | 33.54% | 
3 | CC(C)c1ccc(-c2nc3ccccc3n2CCN2CCOCC2)cc1 [Compound 2e, 2-(4-Isopropylphenyl)-1-[2-(morpholin-4-yl)ethyl]-1H-benzimidazole] |  |  |  |  |  |  |  |  |  |  |  |  |  |  |  |  |  |  | 35.47% | 26.65% | 
4 | CCOc1ccc(-c2nc3ccccc3n2CCN2CCOCC2)cc1 [Compound 2j, 2-(4-Ethoxyphenyl)-1-[2-(morpholin-4-yl)ethyl]-1H-benzimidazole] | 316 µM | non-cytotoxic | 0.15 | 0.00 | 0.15 | 0.38 | 0.31 | 0.15 | 0.80 | 1.00 | 0.40 | 0.67 | 0.67 *** | 1.20 | non-genotoxic; also recorded: non-mutagenic | 0.25 | 0.12 * | 0.62 | 41.73% | 32.44% | REVERTANTS Fold Increase (over Baseline) ([3]; TA98, S9+, 1.25 mg/mL): 0.74; REVERTANTS Fold Increase (over Baseline) ([3]; TA98, S9+, 2.5 mg/mL): 0.12; REVERTANTS Fold Increase (over Baseline) ([3]; TA98, S9+, 5 mg/mL): 0.74 *; REVERTANTS Fold Increase (over Baseline) ([3]; TA98, S9−, 0.156 mg/mL): 0.60; REVERTANTS Fold Increase (over Baseline) ([3]; TA98, S9−, 0.3125 mg/mL): 0.94; REVERTANTS Fold Increase (over Baseline) ([3]; TA98, S9−, 0.625 mg/mL): 0.68; REVERTANTS Fold Increase (over Baseline) ([3]; TA98, S9−, 1.25 mg/mL): 0.60; REVERTANTS Fold Increase (over Baseline) ([3]; TA98, S9−, 2.5 mg/mL): 0.94; REVERTANTS Fold Increase (over Baseline) ([3]; TA98, S9−, 5 mg/mL): 0.09 ***; Ames MPF mutagenicity classification [3]: non-genotoxic; also recorded: non-mutagenic
5 | FC(F)(F)Oc1ccc(-c2nc3ccccc3n2CCN2CCOCC2)cc1 [Compound 2m, 2-(4-Trifluoromethoxyphenyl)-1-[2-(morpholin-4-yl)ethyl]-1H-benzimidazole] | 100 µM | non-cytotoxic | 0.10 | 0.10 | 0.88 | 0.19 | 0.49 | 0.29 | 0.61 | 0.88 | 0.47 | 0.47 | 0.54 | 0.61 | non-genotoxic; also recorded: non-mutagenic | 0.46 | 0.62 | 0.77 | 25.84% | 12.43% | REVERTANTS Fold Increase (over Baseline) ([3]; TA98, S9+, 1.25 mg/mL): 0.46; REVERTANTS Fold Increase (over Baseline) ([3]; TA98, S9+, 2.5 mg/mL): 1.23; REVERTANTS Fold Increase (over Baseline) ([3]; TA98, S9+, 5 mg/mL): 0.31; REVERTANTS Fold Increase (over Baseline) ([3]; TA98, S9−, 0.156 mg/mL): 0.95; REVERTANTS Fold Increase (over Baseline) ([3]; TA98, S9−, 0.3125 mg/mL): 0.70; REVERTANTS Fold Increase (over Baseline) ([3]; TA98, S9−, 0.625 mg/mL): 0.57; REVERTANTS Fold Increase (over Baseline) ([3]; TA98, S9−, 1.25 mg/mL): 1.08 *; REVERTANTS Fold Increase (over Baseline) ([3]; TA98, S9−, 2.5 mg/mL): 0.82; REVERTANTS Fold Increase (over Baseline) ([3]; TA98, S9−, 5 mg/mL): 1.08 *; Ames MPF mutagenicity classification [3]: non-genotoxic; also recorded: non-mutagenic
